Source: PubChem BioAssay AID248 (DTP/NCI, 2004)
“And” between values parts separate entries of the source, which are not always exact repeats. Equal entries are not always repeated. Toxic doses and inconclusive results are not listed. Cut-off read from the data, not from the text of the source: active = T/C of 150% or more; inactive = T/C below 125%.

System: L1210 leukemia ip in BDF1 mice, survival T/C
Assay: NCI In Vivo Anticancer Drug Screen. Data for tumor model L1210 Leukemia (intraperitoneal) in B6D2F1 (BDF1) mice
Details: endpoint: mean survival time, higher = longer survival
Summary of the method: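 Transplantable tumor model; survival measured in treated vs vehicle control mice. Value = treated/control.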

[1] = dose: 100.0 mg/kg/injection, schedule: Q01DX009 (ip), vehicle: Klucel (hydroxypropylcellulose) (HPC)
[2] = dose: 100.0 mg/kg/injection, schedule: Q04DX002 (ip), vehicle: Klucel (hydroxypropylcellulose) (HPC)
[3] = dose: 100.0 mg/kg/injection, schedule: Q04DX003 (ip), vehicle: Klucel (hydroxypropylcellulose) (HPC)
[4] = dose: 200.0 mg/kg/injection, schedule: Q01DX009 (ip), vehicle: Klucel (hydroxypropylcellulose) (HPC)
[5] = dose: 200.0 mg/kg/injection, schedule: Q04DX002 (ip), vehicle: Klucel (hydroxypropylcellulose) (HPC)
[6] = dose: 200.0 mg/kg/injection, schedule: Q04DX003 (ip), vehicle: Klucel (hydroxypropylcellulose) (HPC)
[7] = dose: 400.0 mg/kg/injection, schedule: Q01DX009 (ip), vehicle: Klucel (hydroxypropylcellulose) (HPC)
[8] = dose: 400.0 mg/kg/injection, schedule: Q04DX002 (ip), vehicle: Klucel (hydroxypropylcellulose) (HPC)
[9] = dose: 400.0 mg/kg/injection, schedule: Q04DX003 (ip), vehicle: Klucel (hydroxypropylcellulose) (HPC)
[10] = dose: 100.0 mg/kg/injection, schedule: Q04DX002 (ip), vehicle: saline with Tween-80
[11] = dose: 200.0 mg/kg/injection, schedule: Q04DX002 (ip), vehicle: saline with Tween-80

Measured: T/C

O=C(Nc1ccccn1)Nc1cc(C(F)(F)F)ccc1Cl
inactive: dose: 100.0 mg/kg/injection, schedule: Q01DX001 (ip), vehicle: Klucel (hydroxypropylcellulose) (HPC) 98 % of control | [1] 95 % of control and 90 % of control | [2] 95 % of control and 103 % of control | [3] 108 % of control | dose: 200.0 mg/kg/injection, schedule: Q01DX001 (ip), vehicle: Klucel (hydroxypropylcellulose) (HPC) 91 % of control | [4] 92 % of control | [5] 98 % of control and 103 % of control | [6] 97 % of control | dose: 400.0 mg/kg/injection, schedule: Q01DX001 (ip), vehicle: Klucel (hydroxypropylcellulose) (HPC) 98 % of control | [7] 95 % of control | [8] 93 % of control and 97 % of control | [9] 96 % of control

C=C1C(=O)OC2C=C(C(O)CC(C)O)C(C)CCC12 (stereo not given)
inactive: dose: 50.0 mg/kg/injection, schedule: Q01DX001 (ip), vehicle: water 89 % of control | dose: 100.0 mg/kg/injection, schedule: Q01DX001 (ip), vehicle: water 95 % of control | dose: 200.0 mg/kg/injection, schedule: Q01DX001 (ip), vehicle: water 94 % of control

CC(=S)Nc1ccccc1
inactive: dose: 25.0 mg/kg/injection, schedule: Q01DX009 (ip), vehicle: Klucel (hydroxypropylcellulose) (HPC) 101 % of control | dose: 50.0 mg/kg/injection, schedule: Q01DX009 (ip), vehicle: Klucel (hydroxypropylcellulose) (HPC) 104 % of control | [1] 95 % of control

COC1=C(c2ccccc2)P(=O)(Cc2ccccc2)C(C)C1 (stereo not given)
inactive: [2] 108 % of control | [5] 96 % of control | [8] 93 % of control

CCCNC(=O)Oc1ccccc1-c1ccccc1
inactive: [10] 92 % of control | [11] 103 % of control | dose: 400.0 mg/kg/injection, schedule: Q04DX002 (ip), vehicle: saline with Tween-80 110 % of control

O=C(O)C1CCC[N-]C1.O=C(O)C1CCC[N-]C1.[Cl][Pt+2][Cl] (stereo not given)
inactive: dose: 5.0 mg/kg/injection, schedule: Q01DX009 (ip), vehicle: saline with Tween-80 95 % of control | dose: 10.0 mg/kg/injection, schedule: Q01DX009 (ip), vehicle: saline with Tween-80 103 % of control | dose: 20.0 mg/kg/injection, schedule: Q01DX009 (ip), vehicle: saline with Tween-80 106 % of control

Cc1ccc(NCc2ccccc2O)c(C)c1
inactive: dose: 100.0 mg/kg/injection, schedule: Q04DX003 (ip), vehicle: gum acacia 94 % of control | dose: 200.0 mg/kg/injection, schedule: Q04DX003 (ip), vehicle: gum acacia 101 % of control | dose: 400.0 mg/kg/injection, schedule: Q04DX003 (ip), vehicle: gum acacia 99 % of control

CN(C)c1ccc(/C(=N\O)c2cc[n+](C)cc2)cc1
inactive: dose: 1.56 mg/kg/injection, schedule: Q01DX009 (ip), vehicle: saline 98 % of control | dose: 3.13 mg/kg/injection, schedule: Q01DX009 (ip), vehicle: saline 111 % of control | dose: 6.25 mg/kg/injection, schedule: Q01DX009 (ip), vehicle: saline 104 % of control

O=C(OC/C=C/c1ccccc1)c1ccccc1
inactive: dose: 50.0 mg/kg/injection, schedule: Q01DX009 (ip), vehicle: saline with Tween-80 97 % of control | dose: 100.0 mg/kg/injection, schedule: Q01DX009 (ip), vehicle: saline with Tween-80 91 % of control | dose: 200.0 mg/kg/injection, schedule: Q01DX009 (ip), vehicle: saline with Tween-80 91 % of control

O=C(Nc1ccc([N+](=O)[O-])cc1)Nc1ccc([N+](=O)[O-])cc1 (tested in a mixture with another compound)
inactive: [3] 89 % of control | dose: 200.0 mg/kg/injection, schedule: Q01DX009 (ip), vehicle: saline 98 % of control | [6] 100 % of control | dose: 400.0 mg/kg/injection, schedule: Q01DX009 (ip), vehicle: saline 88 % of control | [9] 89 % of control

CCCCCCCCCCCC(=O)N/N=C(\c1ccccc1)c1ccc(Cl)cc1
inactive: [2] 103 % of control | [5] 103 % of control | [8] 122 % of control

O=C(NCCCl)Oc1cccc2c1CCCC2
inactive: [1] 87 % of control | [3] 103 % of control | [4] 97 % of control | [6] 100 % of control | [7] 100 % of control | [9] 100 % of control

COc1c(C)c(C)c(OC)c(C(C)O)c1C (stereo not given)
inactive: dose: 100.0 mg/kg/injection, schedule: Q04DX003 (ip), vehicle: other 92 % of control | dose: 200.0 mg/kg/injection, schedule: Q04DX003 (ip), vehicle: other 100 % of control | dose: 400.0 mg/kg/injection, schedule: Q04DX003 (ip), vehicle: other 97 % of control

O=Nc1ccc(N(CCO)CCO)cc1
inactive: dose: 5.0 mg/kg/injection, schedule: Q01DX001 (ip), vehicle: saline 97 % of control | dose: 10.0 mg/kg/injection, schedule: Q01DX001 (ip), vehicle: saline 97 % of control | dose: 20.0 mg/kg/injection, schedule: Q01DX001 (ip), vehicle: saline 101 % of control | dose: 40.0 mg/kg/injection, schedule: Q01DX001 (ip), vehicle: saline 111 % of control

C/C=C(\C)C(=O)O[C@@H]1c2cc3c(cc2-c2c(cc(OC)c(OC)c2OC)[C@@H]2C(=O)OC[C@@H]12)OCO3
inactive: dose: 8.0 mg/kg/injection, schedule: Q01DX009 (ip), vehicle: saline + alcohol 94 % of control | dose: 12.0 mg/kg/injection, schedule: Q01DX009 (ip), vehicle: saline + alcohol 108 % of control | dose: 18.0 mg/kg/injection, schedule: Q01DX009 (ip), vehicle: saline + alcohol 105 % of control | dose: 27.0 mg/kg/injection, schedule: Q01DX009 (ip), vehicle: saline + alcohol 100 % of control

OCCCCCCN=Cc1ccccc1O.OCCCCCCN=Cc1ccccc1O.[Cu]
inactive: dose: 9.5 mg/kg/injection, schedule: Q01DX001 (ip), vehicle: other 95 % of control | dose: 19.0 mg/kg/injection, schedule: Q01DX001 (ip), vehicle: other 100 % of control and 92 % of control | dose: 19.0 mg/kg/injection, schedule: Q01DX009 (ip), vehicle: other 93 % of control | dose: 38.0 mg/kg/injection, schedule: Q01DX001 (ip), vehicle: other 94 % of control and 95 % of control | dose: 38.0 mg/kg/injection, schedule: Q01DX009 (ip), vehicle: other 95 % of control | dose: 75.0 mg/kg/injection, schedule: Q01DX001 (ip), vehicle: other 95 % of control and 102 % of control | dose: 75.0 mg/kg/injection, schedule: Q01DX009 (ip), vehicle: other 96 % of control

c1ccc(CSc2nccc(NN=C3CCCCC3)n2)cc1
inactive: dose: 25.0 mg/kg/injection, schedule: Q01DX001 (ip), vehicle: DMSO 90 % of control | dose: 50.0 mg/kg/injection, schedule: Q01DX001 (ip), vehicle: DMSO 88 % of control | dose: 75.0 mg/kg/injection, schedule: Q01DX009 (ip), vehicle: DMSO 92 % of control | dose: 100.0 mg/kg/injection, schedule: Q01DX001 (ip), vehicle: DMSO 88 % of control | dose: 150.0 mg/kg/injection, schedule: Q01DX009 (ip), vehicle: DMSO 94 % of control | dose: 200.0 mg/kg/injection, schedule: Q01DX001 (ip), vehicle: DMSO 91 % of control | dose: 400.0 mg/kg/injection, schedule: Q01DX001 (ip), vehicle: DMSO 100 % of control

NS(=O)(=O)c1c[nH]c(=O)[nH]c1=O
inactive: dose: 100.0 mg/kg/injection, schedule: Q04DX003 (ip), vehicle: saline 104 % of control | dose: 200.0 mg/kg/injection, schedule: Q04DX003 (ip), vehicle: saline 102 % of control | dose: 400.0 mg/kg/injection, schedule: Q04DX003 (ip), vehicle: saline 102 % of control

COc1cc2c[n+](C)c3c4ccccc4ccc3c2cc1OC
inactive: dose: 100.0 mg/kg/injection, schedule: Q01DX001 (ip), vehicle: saline with Tween-80 88 % of control | dose: 200.0 mg/kg/injection, schedule: Q01DX001 (ip), vehicle: saline with Tween-80 88 % of control

NCCCN1CCCC1=O
inactive: dose: 100.0 mg/kg/injection, schedule: Q01DX001 (ip), vehicle: saline 98 % of control | dose: 200.0 mg/kg/injection, schedule: Q01DX001 (ip), vehicle: saline 101 % of control | dose: 400.0 mg/kg/injection, schedule: Q01DX001 (ip), vehicle: saline 98 % of control

N#Cc1ccc(N=S=O)cc1
inactive: [10] 105 % of control | [11] 112 % of control
